Test: Dissolution of the powder in ViaSpan preservation medium
Type: physicochemical
Settings: in 10 ml of ViaSpan preservation medium, 100×-concentrated solution
Description: The production process consists in taking up 15.77 mg of propane diamine-β-CD in powder form in 10 ml of the preservation medium ViaSpan® to obtain a 100×-concentrated solution.
The preparation of the close mixture is carried out according to the following operating procedure: • 4.57 mg of resveratrol is added to 9 ml of a solution that contains 2495.3 mg of propane diamine-β-CD in water, • The pH is adjusted to 7.4, • The whole is stirred for 5 to 24 hours at 24° C. and in the absence of light, • The solution is next filtered in a Millipore hydrophilic PVDF filter and then freeze-dried to provide a powder that contains a close mixture whose resveratrol/propane diamine-β-CD molar ratio is 1/111, • The freeze-dried close mixture is preserved in amber bottles at 4° C., • 15.8 mg of the close mixture is then taken up in 10 ml of the ViaSpan® preservation medium to obtain a 100×-concentrated solution.

Question: For `NCCCNCC1OC2OC3C(CO)OC(OC4C(CO)OC(OC5C(CO)OC(OC6C(CO)OC(OC7C(CO)OC(OC8C(CO)OC(OC1C(O)C2O)C(O)C8O)C(O)C7O)C(O)C6O)C(O)C5O)C(O)C4O)C(O)C3O` (stereo not drawn) [propane diamine-β-CD, 6A-(3-aminopropylamino)-6A-deoxy-cyclomatoheptaose], which “Dissolution of the powder” value is on record?
Answer: dissolves instantaneously

From patent US20090123904A1, “COMPOSITION FOR PRESERVING CELLS, TISSUES, OR ORGANS, PRODUCTION PROCESS AND USES” (BIOCYDEX, SOCIETE PAR ACTIONS SIMPLIFIEE, priority 2007, published 2009)
